Measurements taken from patent US20250170248A1, “SMARCA DEGRADERS AND USES THEREOF” (Kymera Therapeutics, Inc., priority 2021, published 2025).

Legend:
Type in all cases: cell-based
SMARCA2 [1] = molecular target: T1, SMARCA2 (Homo sapiens, UniProt P51531); assay: MSD SMARCA2 degradation in A549 cell line; conditions: for Dmax: A549, A549 cells; for Dmax / DC50: 24 h; for DC50 / SMARCA2 MSD A549 degradation 24 h: Average Dmax %: A549 cells; for DC50: read-out: SMARCA2 MSD A549 degradation 24 h: Average external-Abs DC50
Summary of the method: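 A549 cells treated 24 h with compound, 3-fold series from 1000 nM. Lysates captured on MSD plates and SMARCA2 quantified with anti-SMARCA2 and SULFO-TAG secondary antibodies (electrochemiluminescence). DC50 and Dmax (% degradation at 24 h) reported as letter bins.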

SMARCA4 = molecular target: T2, SMARCA4 (Homo sapiens, UniProt P51532); assay: SMARCA4 Western blot degradation in MV4-11 cells; conditions: for Dmax: MV4-11, MV4-11 cells, read-out: SMARCA4 MSD MV411 degradation 24 h: average Dmax %; for Dmax / DC50: 24 h; for DC50 / SMARCA4 MSD MV411 degradation 24 h: average Dmax %: MV4-11 cells; for DC50: read-out: SMARCA4 MSD MV411 degradation 24 h: Mean external-Abs DC50
T2 construct: SMARCA2/SMARCA4 protein degradation selectivity in MV4-11 cells; endogenous in cells; host or cells: MV4-11
Summary of the method: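 24 h compound exposure, MV4-11; RIPA lysates → SDS-PAGE → NC membrane; anti-SMARCA2/BRM, anti-BRG1, β-actin loading control; LI-COR fluorescence read. DC50 and Dmax at 24 h reported as letter bins.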

SMARCA2 [2] = molecular target: T1, SMARCA2; assay: SMARCA2 Western blot degradation in MV4-11 cells; parameters: SMARCA2/SMARCA4 protein degradation selectivity in MV4-11 cells; endogenous in cells; host or cells: MV4-11; conditions: for Dmax: MV4-11, MV4-11 cells, read-out: SMARCA2 MSD MV411 degradation 24 h: average Dmax %; for Dmax / DC50 / SMARCA2 MSD MV411 degradation 24 h: average Dmax %: 24 h; for DC50 / Selectivity in MV411 / SMARCA2 MSD MV411 degradation 24 h: average Dmax %: MV4-11 cells; for DC50: read-out: SMARCA2 MSD MV411 degradation 24 h: Mean external-Abs DC50; for Selectivity in MV411: SMARCA2/4 selectivity

T2 sequence (P51532 whole entry): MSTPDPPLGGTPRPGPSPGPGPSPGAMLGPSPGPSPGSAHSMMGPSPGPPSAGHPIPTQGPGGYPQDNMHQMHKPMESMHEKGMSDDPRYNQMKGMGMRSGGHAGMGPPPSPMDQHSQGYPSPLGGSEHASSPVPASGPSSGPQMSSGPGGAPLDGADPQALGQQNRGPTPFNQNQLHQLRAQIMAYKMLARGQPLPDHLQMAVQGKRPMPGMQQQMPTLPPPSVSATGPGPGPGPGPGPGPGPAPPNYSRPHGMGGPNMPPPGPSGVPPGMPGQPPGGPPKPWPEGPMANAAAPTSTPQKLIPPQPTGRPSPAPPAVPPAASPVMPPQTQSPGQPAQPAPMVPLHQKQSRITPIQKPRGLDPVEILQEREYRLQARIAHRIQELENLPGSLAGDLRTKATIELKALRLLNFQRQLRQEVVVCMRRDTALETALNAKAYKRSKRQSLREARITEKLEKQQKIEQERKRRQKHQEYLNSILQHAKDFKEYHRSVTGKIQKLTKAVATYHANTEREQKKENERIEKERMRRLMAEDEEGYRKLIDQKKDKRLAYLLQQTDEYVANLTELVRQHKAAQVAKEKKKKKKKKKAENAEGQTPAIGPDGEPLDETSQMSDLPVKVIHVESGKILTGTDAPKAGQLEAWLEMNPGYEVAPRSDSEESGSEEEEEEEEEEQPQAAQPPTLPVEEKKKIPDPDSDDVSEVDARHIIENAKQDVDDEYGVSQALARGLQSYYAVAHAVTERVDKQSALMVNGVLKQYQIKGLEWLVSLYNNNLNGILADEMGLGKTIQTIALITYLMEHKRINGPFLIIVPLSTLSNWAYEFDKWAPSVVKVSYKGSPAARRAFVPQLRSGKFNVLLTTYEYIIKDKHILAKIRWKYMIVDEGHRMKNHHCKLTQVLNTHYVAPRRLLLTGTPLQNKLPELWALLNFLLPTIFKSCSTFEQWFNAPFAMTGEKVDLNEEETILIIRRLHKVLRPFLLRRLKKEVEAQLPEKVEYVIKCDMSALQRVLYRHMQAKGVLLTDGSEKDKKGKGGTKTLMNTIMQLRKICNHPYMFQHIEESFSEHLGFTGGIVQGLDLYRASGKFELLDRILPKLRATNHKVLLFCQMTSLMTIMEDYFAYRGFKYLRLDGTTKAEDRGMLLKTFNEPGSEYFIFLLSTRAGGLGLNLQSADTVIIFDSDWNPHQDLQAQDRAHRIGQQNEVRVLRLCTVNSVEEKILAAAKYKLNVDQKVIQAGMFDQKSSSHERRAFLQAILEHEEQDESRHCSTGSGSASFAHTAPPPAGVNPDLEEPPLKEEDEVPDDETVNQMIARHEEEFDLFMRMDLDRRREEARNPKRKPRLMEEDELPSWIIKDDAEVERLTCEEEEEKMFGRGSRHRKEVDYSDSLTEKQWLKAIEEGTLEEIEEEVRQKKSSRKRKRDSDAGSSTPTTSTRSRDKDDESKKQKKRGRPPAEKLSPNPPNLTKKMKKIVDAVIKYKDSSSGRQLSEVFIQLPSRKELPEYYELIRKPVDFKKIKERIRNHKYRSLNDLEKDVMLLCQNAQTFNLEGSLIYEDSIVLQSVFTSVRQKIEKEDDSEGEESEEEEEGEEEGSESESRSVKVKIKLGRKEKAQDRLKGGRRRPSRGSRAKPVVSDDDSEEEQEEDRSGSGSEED
T1 sequence (P51531 whole entry): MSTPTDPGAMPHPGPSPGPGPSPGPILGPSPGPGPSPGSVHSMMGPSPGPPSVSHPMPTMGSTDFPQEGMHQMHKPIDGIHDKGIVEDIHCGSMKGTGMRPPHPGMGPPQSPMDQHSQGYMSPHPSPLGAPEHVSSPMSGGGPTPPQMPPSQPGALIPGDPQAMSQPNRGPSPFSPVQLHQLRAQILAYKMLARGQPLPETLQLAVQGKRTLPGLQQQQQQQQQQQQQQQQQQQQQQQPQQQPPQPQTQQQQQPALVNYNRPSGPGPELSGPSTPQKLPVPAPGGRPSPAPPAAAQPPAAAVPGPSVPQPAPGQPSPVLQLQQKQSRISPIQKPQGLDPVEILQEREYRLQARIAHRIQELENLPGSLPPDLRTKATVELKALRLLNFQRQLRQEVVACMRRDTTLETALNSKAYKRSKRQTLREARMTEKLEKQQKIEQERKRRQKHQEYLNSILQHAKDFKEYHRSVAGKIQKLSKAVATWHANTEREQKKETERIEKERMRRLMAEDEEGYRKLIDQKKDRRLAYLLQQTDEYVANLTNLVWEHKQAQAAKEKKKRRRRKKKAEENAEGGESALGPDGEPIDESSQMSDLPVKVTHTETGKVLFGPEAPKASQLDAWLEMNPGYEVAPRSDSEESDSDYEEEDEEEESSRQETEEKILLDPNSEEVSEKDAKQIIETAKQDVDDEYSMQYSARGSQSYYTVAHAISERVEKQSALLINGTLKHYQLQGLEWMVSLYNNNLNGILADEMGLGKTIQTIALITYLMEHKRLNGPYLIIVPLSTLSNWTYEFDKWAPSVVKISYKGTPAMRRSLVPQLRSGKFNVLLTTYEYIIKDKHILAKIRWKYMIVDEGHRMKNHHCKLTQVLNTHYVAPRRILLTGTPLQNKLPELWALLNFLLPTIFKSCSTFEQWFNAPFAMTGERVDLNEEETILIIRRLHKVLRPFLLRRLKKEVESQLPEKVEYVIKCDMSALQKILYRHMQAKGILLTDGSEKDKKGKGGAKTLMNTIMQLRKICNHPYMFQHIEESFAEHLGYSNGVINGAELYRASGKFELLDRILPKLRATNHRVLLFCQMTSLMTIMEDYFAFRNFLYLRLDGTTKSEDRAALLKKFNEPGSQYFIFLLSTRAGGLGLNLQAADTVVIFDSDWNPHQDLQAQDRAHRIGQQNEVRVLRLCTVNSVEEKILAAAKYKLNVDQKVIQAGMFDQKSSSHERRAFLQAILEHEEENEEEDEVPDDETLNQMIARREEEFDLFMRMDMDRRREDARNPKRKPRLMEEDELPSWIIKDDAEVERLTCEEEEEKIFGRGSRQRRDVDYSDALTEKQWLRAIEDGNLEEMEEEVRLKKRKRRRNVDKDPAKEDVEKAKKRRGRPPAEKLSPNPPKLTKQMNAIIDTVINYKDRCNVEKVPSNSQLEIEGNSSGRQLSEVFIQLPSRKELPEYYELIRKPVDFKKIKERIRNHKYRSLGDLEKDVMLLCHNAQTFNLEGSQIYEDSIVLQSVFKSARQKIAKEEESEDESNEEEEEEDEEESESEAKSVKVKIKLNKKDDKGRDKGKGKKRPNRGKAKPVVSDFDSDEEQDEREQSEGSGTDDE

| Compound | Dmax (SMARCA2 [1]) [%] | DC50 (SMARCA2 [1]) [nM] | Dmax (SMARCA4) [%] | DC50 (SMARCA4) [nM] | Dmax (SMARCA2 [2]) [%] | DC50 (SMARCA2 [2]) [nM] | Selectivity in MV411 (SMARCA2 [2]) | SMARCA2 MSD A549 degradation 24 h: Average Dmax % (SMARCA2 [1]) | SMARCA4 MSD MV411 degradation 24 h: average Dmax % (SMARCA4) | SMARCA2 MSD MV411 degradation 24 h: average Dmax % (SMARCA2 [2]) |
| --- | --- | --- | --- | --- | --- | --- | --- | --- | --- | --- |
| C#Cc1ccc(CNC(=O)[C@@H]2C[C@@H](O)CN2C(=O)[C@@H](NC(=O)N2CC3(CC(N4CCC(c5cnc(N6CCc7[nH]c8nnc(-c9ccccc9O)cc8c7[C@@H]6CO)nc5)CC4)C3)C2)C(C)(C)C)cc1 [I-147] | > 90 | 50 to 100 | 70 to 90 | 10 to 100 | > 90 | 1 to 10 | D (D (<10 fold)) | – | – | – |
| C#Cc1ccc([C@H](C)NC(=O)[C@@H]2C[C@@H](O)CN2C(=O)[C@@H](NC(=O)N2CC3(CC(N4CCC(c5cnc(N6CCc7[nH]c8nnc(-c9ccccc9O)cc8c7[C@H]6C)nc5)CC4)C3)C2)C(C)(C)C)cc1 [I-151] | > 90 | 10 to 50 | 50 to 70 | > 100 | 70 to 90 | 1 to 10 | C (C (10-100 fold)) | – | – | – |
| C#Cc1ccc(CNC(=O)[C@@H]2C[C@@H](O)CN2C(=O)[C@@H](NC(=O)N2CCN(CC3CCN(c4cnc(N5CCc6[nH]c7nnc(-c8ccccc8O)cc7c6[C@@H]5C)nc4)CC3)CC2)C(C)(C)C)cc1 [I-160] | > 90 | > 100 | > 90 | > 100 | 70 to 90 | 10 to 100 | D (D (<10 fold)) | – | – | – |
| C#Cc1ccc(CNC(=O)[C@@H]2C[C@@H](O)CN2C(=O)[C@@H](NC(=O)[C@H]2CCC3(CC2)C[C@H](N2CCN(c4cnc(N5CCN6c7cc(-c8ccccc8O)nnc7NC[C@H]6C5)nc4)CC2)C3)C(C)(C)C)c(OC)c1 (single isomer, unassigned) [I-196] | – | 10 to 50 | – | > 100 | – | 1 to 10 | C (C (10-100 fold)) | A (A (>90% degradation)) | C (C (50-70% degradation)) | B (B (>70-90% degradation)) |
| C#Cc1ccc(CNC(=O)[C@@H]2C[C@@H](O)CN2C(=O)[C@@H](NC(=O)[C@H]2CCC3(CC2)C[C@H](N2CCC(c4cnc(N5CCN6c7cc(-c8ccccc8O)nnc7NC[C@H]6C5)nc4)CC2)C3)C(C)(C)C)c(OC)c1 (single isomer, unassigned) [I-100] | – | < 10 | 70 to 90 | 10 to 100 | > 90 | < 1 | C (C (10-100 fold)) | A (A (>90% degradation)) | – | – |
| C#Cc1ccc(CNC(=O)[C@@H]2C[C@@H](O)CN2C(=O)[C@@H](NC(=O)N2CC3(CC(N4CCC(c5cnc(N6CCc7[nH]c8nnc(-c9ccccc9O)cc8c7[C@H]6C)nc5)CC4)C3)C2)C(C)(C)C)c(F)c1 [I-120] | > 90 | 10 to 50 | 50 to 70 | > 100 | 70 to 90 | 10 to 100 | B (B (>100-500 fold)) | – | – | – |
| C#Cc1ccc(CNC(=O)[C@@H]2C[C@@H](O)CN2C(=O)[C@@H](NC(=O)N2CCC(C(=O)N3CCC(N4CCC(N5CCc6[nH]c7nnc(-c8ccccc8O)cc7c6[C@H]5C)CC4)CC3)CC2)C(C)(C)C)cc1 [I-192] | 70 to 90 | > 100 | < 50 | > 100 | < 50 | > 100 | C (C (10-100 fold)) | – | – | – |
| C#Cc1ccc2c(c1)OCC[C@@H]2NC(=O)[C@@H]1C[C@@H](O)CN1C(=O)[C@@H](NC(=O)N1CC2(CC(N3CCC(c4cnc(N5CCc6[nH]c7nnc(-c8ccccc8O)cc7c6[C@H]5C)nc4)CC3)C2)C1)C(C)(C)C (single isomer, unassigned) [I-235] | 50 to 70 | > 100 | < 50 | > 100 | < 50 | > 100 | D (D (<10 fold)) | – | – | – |
| C#Cc1ccc([C@H](C)NC(=O)[C@@H]2C[C@@H](O)CN2C(=O)[C@@H](NC(=O)[C@H]2CCC3(CC2)C[C@H](N2CCN(c4cnc(N5CCN6c7cc(-c8ccccc8O)nnc7NC[C@H]6C5)nc4)CC2)C3)C(C)(C)C)cc1 (single isomer, unassigned) [I-234] | – | 50 to 100 | – | > 100 | – | 10 to 100 | C (C (10-100 fold)) | A (A (>90% degradation)) | C (C (50-70% degradation)) | B (B (>70-90% degradation)) |
| C#Cc1ccc(CNC(=O)[C@@H]2C[C@@H](O)CN2C(=O)[C@@H](NC(=O)N2CCC(CN3CCC(N4CCC(N5CCc6[nH]c7nnc(-c8ccccc8O)cc7c6[C@H]5C)CC4)CC3)CC2)C(C)(C)C)cc1 [I-189] | 50 to 70 | > 100 | < 50 | > 100 | < 50 | > 100 | C (C (10-100 fold)) | – | – | – |
| C#Cc1ccc([C@H](C)NC(=O)[C@@H]2C[C@@H](O)CN2C(=O)C(c2cc(N3CCC(CN4CCC(N5CCC(N6CCN7c8cc(-c9ccccc9O)nnc8NC[C@H]7C6)CC5)CC4)CC3)no2)C(C)C)c(Cl)c1 (stereo partly shown) [I-324] | < 50 | > 100 | < 50 | > 100 | < 50 | > 100 | C (C (10-100 fold)) | – | – | – |
| C#Cc1ccc(CNC(=O)[C@@H]2C[C@@H](O)CN2C(=O)[C@@H](NC(=O)[C@H]2CCC3(CC2)C[C@H](N2CCN(c4cnc(N5CCN6c7cc(-c8ccccc8O)nnc7NC[C@H]6C5)nc4)CC2)C3)C(C)(C)C)c(OC)c1 (single isomer, unassigned) [I-195] | > 90 | 10 to 50 | 70 to 90 | 10 to 100 | > 90 | 1 to 10 | C (C (10-100 fold)) | – | – | – |
| C#Cc1ccc(CNC(=O)[C@@H]2C[C@@H](O)CN2C(=O)[C@@H](NC(=O)N2CCC(N3CC4(CC(N5CCC(N6CCc7[nH]c8nnc(-c9ccccc9O)cc8c7[C@H]6C)CC5)C4)C3)CC2)C(C)(C)C)cc1 [I-206] | 70 to 90 | > 100 | < 50 | > 100 | < 50 | > 100 | C (C (10-100 fold)) | – | – | – |
| Cc1ncsc1-c1ccc(CNC(=O)[C@@H]2C[C@@H](O)CN2C(=O)[C@@H](NC(=O)N2CC3(CC(N4CCN(c5cnc(N6CCc7[nH]c8nnc(-c9ccccc9O)cc8c7[C@H]6C)nc5)CC4)C3)C2)C(C)(C)C)cc1 [I-82] | > 90 | < 10 | 70 to 90 | 10 to 100 | > 90 | 1 to 10 | C (C (10-100 fold)) | – | – | – |
| C#Cc1cc(Cl)c(CNC(=O)[C@@H]2C[C@@H](O)CN2C(=O)[C@@H](NC(=O)[C@H]2CC3(C2)C[C@H](N2CCC(N4CCC(N5CCN6c7cc(-c8ccccc8O)nnc7NC[C@H]6C5)CC4)CC2)C3)C(C)(C)C)c(OC)c1 (single isomer, unassigned) [I-328] | < 50 | > 100 | < 50 | > 100 | < 50 | > 100 | D (D (<10 fold)) | – | – | – |
| C#Cc1ccc(CNC(=O)[C@@H]2C[C@@H](O)CN2C(=O)[C@@H](NC(=O)N2CCC[C@@H](CN3CCC(N4CCC(N5CCN6c7cc(-c8ccccc8O)nnc7NC[C@H]6C5)CC4)CC3)C2)C(C)(C)C)cc1 (single isomer, unassigned) [I-253] | < 50 | > 100 | < 50 | > 100 | < 50 | > 100 | D (D (<10 fold)) | – | – | – |
